Here are results for one compound from patent publication US20240207265A1, “TREATMENT OF CNS DISEASES WITH sGC STIMULATORS” (Tisento Therapeutics Inc., priority 2021, published 2024).

The structures appear in SMILES notation.

In data set [1] the test system is MPTP-induced cognitive deficits. In words: Chronic low dose MPTP-lesioned macaque model of cognitive deficits in Parkinson's disease. The class given is in vivo, cynomolgus macaques. The note with it: 3.0 mg/kg oral daily monotherapy. An excerpt: This study was a non-GLP study in the chronic low dose MPTP-lesioned macaque model of Parkinson's disease. This model has been described in the literature (https://www.ncbi.nlm.nih.gov/pmc/articles/PMC3282499/). The study was designed to assess effects of Compound I-14, administered as monotherapy, on performance of the following cognitive tasks: variable delayed response (VDR), continuous performance (CPT), visual discrimination reversal learning (SDR) and object retrieval (OR). The study was conducted in animals that had received prior treatment with low doses of MPTP and were known to have difficulties in the performance of the above-mentioned tasks. These studies utilised four male cynomolgus macaques with MPTP-induced cognitive deficits. The study had 4 parts. The first part of the study was to collect baseline data from the four animals on the four tasks to be studied. The second part of the study was to administer vehicle (sterile, filtered distilled water) over a 16 day period and collect vehicle data on the four tasks once per week for two weeks. In the third part of the study, Compound I-14 was administered orally daily for five days and then data were collected on the four tasks once per week for two weeks, with continued daily administration of Compound I-14 (3.0 mg/kg) 2 hrs. prior to each days testing. In the final part of the study, there was a 9 day washout period and then data were collected on the four tasks once per week for two weeks. One dose of Compound I-14 was assessed as monotherapy (3.0 mg/kg) following five days of pre-dosing and daily dosing for two weeks. The effects of the treatment on cognitive performance was assessed 2 hrs. after daily drug administration and during drug washout. MPTP-HCl was administered by i.v. injection at doses ranging from 0.05 mg/kg to 0.30 mg/kg, 2 to 3 times per week for several months. MPTP administration continued until cognitive deficits appeared with minimal/mild parkinsonian motor impairment. Animals were considered “cognitively impaired” if they show at least a 15% decrease in cognitive task performance from pre-MPTP baseline levels. Because response to MPTP is somewhat idiosyncratic, MPTP was administered to effect (i.e., development of cognitive deficits and then development of motor deficits), rather than given for a particular duration of exposure or a particular cumulative dose of MPTP. […] The measure recorded for each session is: 1) total number of trials needed to learn the initial discrimination (i.e. reach the specified criterion of 14/16 correct, and; 2) total number of trials needed to learn (i.e., reach the same criterion as mentioned above) the reversal in which the previously negative (unrewarded) stimulus is now the positive (rewarded) stimulus (i.e., reach criterion). […]

Data set [2] can be described thus: Non-human primate CSF pharmacokinetics (Study B), cisterna magna versus lumbar sampling. In kind it is in vivo, cynomolgus monkeys. On the procedure:
The objective of this study was to investigate the pharmacokinetics of Compound I-14 after administration of a single […] bolus or oral gavage dose to cynomolgus monkeys on Day 1 and to evaluate differences in pharmacokinetic values when comparing CSF collected at the cisterna magna (as in Example 10A) versus lumbar locations.
Single doses of Compound I-14 were administered intravenously as a bolus injection of a solution at 0.15 mg/kg and orally by gavage as a suspension at 0.5 mg/kg to a group of four female cynomolgus monkeys in a crossover design. Plasma samples were collected at 0.25 (15 min), 0.5 (30 min), 1, 2, 3, 6, 8, 12, 24, 32, and 48 h following the IV and PO doses. CSF samples were collected at 3 and 24 h for all animals from the cisterna magna in groups 1 and 2 and the lumbar from groups 3 and 4. Sample extracts were prepared by protein precipitation and Compound I-14 concentrations were measured using LC-MS/MS. Pharmacokinetic parameters were calculated.

For the compound `Cc1cc(F)c(Cc2nc(-c3ncc(F)c(O)n3)cn3ccnc23)cc1F` [Compound I-14, 5-fluoro-2-(8-(2,5-difluoro-4-methylbenzyl)imidazo[1,2-a]pyrazin-6-yl)pyrimidin-4-ol], the Simple discrimination performance result in data set [1] was “not significantly changed”. The “number of trials needed to reach criterion to learn the discrimination reversal” value in data set [1] is reported as “significantly reduced”. Also, in data set [1] (four animals), the “animals failing to learn the discrimination reversal” value is on record as “none of the animals failed to learn the reversal”. In addition, in data set [1] (tested 2 hrs after dosing), the “SDR (discrimination reversal) performance” value is “significantly improved performance”. Also, the “geomean ratio of CSF concentration to unbound concentration in plasma” value in data set [2] (3 hours, IV dosing, cisterna magna sampling) is “C (2<Kp,uu≤3=C)”; in data set [2] (3 hours, IV dosing, lumbar sampling) it was “C (2<Kp,uu≤3=C)”; in data set [2] (3 hours, oral dosing, cisterna magna sampling), “C (2<Kp,uu≤3=C)”; in data set [2] (3 hours, oral dosing, lumbar sampling) it was “C (2<Kp,uu≤3=C)”; in data set [2] (24 hours, IV dosing, cisterna magna sampling), “B (1<Kp,uu≤2=B)”; in data set [2] (24 hours, IV dosing, lumbar sampling) it was “B (1<Kp,uu≤2=B)”. Besides, the “geomean ratio of CSF concentration to unbound concentration in plasma” value in data set [2] (24 hours, oral dosing, cisterna magna sampling) is listed as “C (2<Kp,uu≤3=C)”; in data set [2] (24 hours, oral dosing, lumbar sampling), “C (2<Kp,uu≤3=C)”.
